In ChEMBL document CHEMBL1201862, “PubChem BioAssay data set” (2004):
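Test compounds were applied to cells in 96-well plates for 48 hours at 5 doses. GI50 = concentration required for 50% inhibition of growth.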 Calls of active or inactive are those of the source. Rule as the data show it: active = GI50 up to about 1.1 µM and inactive = higher.

What was measured:
Assay in all cases: NCI-60 cell line screen, 48 h
[1] = tested on: OVCAR-8
[2] = tested on: NCI-H522
[3] = tested on: SW-620
[4] = tested on: Hs-578T
[5] = tested on: M14
[6] = tested on: MCF7
[7] = tested on: IGROV-1
[8] = tested on: MDA-N
[9] = tested on: SF-295
[10] = tested on: SN12C
[11] = tested on: HOP-92
[12] = tested on: OVCAR-3
[13] = tested on: K562
[14] = tested on: BT-549
[15] = tested on: RPMI-8226
[16] = tested on: HCT-15
[17] = tested on: SNB-75
[18] = tested on: SK-MEL-2
[19] = tested on: HCT-116
[20] = tested on: ACHN
[21] = tested on: MDA-MB-231
[22] = tested on: SF-268
[23] = tested on: SF-539
[24] = tested on: SK-OV-3
[25] = tested on: A498
[26] = tested on: CCRF-CEM
[27] = tested on: NCI/ADR-RES
[28] = tested on: UACC-62
[29] = tested on: U-251
[30] = tested on: OVCAR-5
[31] = tested on: PC-3
[32] = tested on: MDA-MB-435
[33] = tested on: NCI-H226
[34] = tested on: NCI-H23
[35] = tested on: DU-145
[36] = tested on: UO-31
[37] = tested on: RXF 393
[38] = tested on: SK-MEL-5
[39] = tested on: CAKI-1
[40] = tested on: UACC-257
[41] = tested on: COLO 205
[42] = tested on: HOP-62
[43] = tested on: OVCAR-4
[44] = tested on: TK-10
[45] = tested on: SNB-19
[46] = tested on: KM12
[47] = tested on: T47D
[48] = tested on: SR
[49] = tested on: NCI-H460
[50] = tested on: 786-0
[51] = tested on: HCC 2998
[52] = tested on: MOLT-4
[53] = tested on: LOX IMVI
[54] = tested on: EKVX

Measured: GI50

Nc1cccc(C#Cc2cccc(C#Cc3cccc(N)n3)n2)n1
> 100 µM: [16]
inactive: [1] > 100 µM | [2] > 100 µM | [3] > 100 µM | [4] > 100 µM | [5] > 100 µM | [6] > 100 µM | [7] 69.5 µM | [8] 79.3 µM | [9] 66.7 µM | [10] 79.3 µM | [11] > 100 µM | [12] > 100 µM | [13] > 100 µM | [14] > 100 µM | [15] 91 µM | [17] > 100 µM | [18] > 100 µM | [19] > 100 µM | [20] > 100 µM | [21] > 100 µM | [22] > 100 µM | [23] 39.9 µM | [24] > 100 µM | [25] > 100 µM | [26] 5.85 µM | [27] > 100 µM | [28] > 100 µM | [29] > 100 µM | [30] > 100 µM | [31] > 100 µM | [32] 89.9 µM | [33] > 100 µM | [34] > 100 µM | [35] > 100 µM | [36] > 100 µM | [37] > 100 µM | [38] 47.4 µM | [39] > 100 µM | [40] > 100 µM | [41] > 100 µM | [42] > 100 µM | [43] > 100 µM | [44] > 100 µM | [45] > 100 µM | [46] > 100 µM | [47] 76.9 µM | [48] 14 µM | [49] 37.2 µM | [50] 55.6 µM | [51] > 100 µM | [52] 32.8 µM | [53] > 100 µM | [54] > 100 µM
